From US11135236B2, “Retinoic acid receptor gamma agonists to attenuate anthracycline-induced cardiotoxicity” (Northwestern University, priority 2018, dated 2021) come the findings set out here.

The subject of one data set is MDA-MB-468. In words: breast cancer cell viability after 72 h of doxorubicin and RARG agonists co-treatment. Particulars: MDA-MB-468, doxorubicin 72 h, Vehicle (no agonist).
In the next data set the test system is C57BL/6J Mice. In words: mouse model of doxorubicin-induced cardiomyopathy, echocardiography. The note with it: doxorubicin 3 mg kg^−1 intraperitoneal twice weekly for 3 weeks. It is filed as in vivo. The source says: Mouse model of doxorubicin-induced cardiomyopathy and drug administration. […] For the control group, we treated mice with corn oil in the same schedule as agonist administration. We recorded an echocardiogram once a week (day 0, day 7, day 14, and day 21) and terminated the experiment at day 21. Hearts were harvested for western blot analyses as mentioned above.
Echocardiographic evaluation. Mice were studied at baseline and weekly during the protocol under light anesthesia with isoflurane (induction 3%, maintenance 1.5%). 2D images in the parastemal short axis were obtained with a GE Vivid 7 ultrasound system (GE Healthcare) equipped with a 13 MHz transducer. Left ventricular end-systolic (LVESD) and end-diastolic (LVEDD) dimensions were measured and left ventricular fractional shortening (FS) was calculated.

A further data set relates to RARG-KO hiPSC-CMs. In words: hiPSC-CM cell viability after 72 h doxorubicin (CellTiter-Glo). Type of data set: cell-based, human. (In general: Cellular ATP, detected with luciferase, serves as a proxy for viable cell number.)
The subject of the next data set is hiPSC-CMs. The data set is described as follows: reactive oxygen species assay (ROS-Glo H2O2). Type of data set: cell-based, human. Particulars: isogenic hiPSC-CMs, 24 h doxorubicin.
Another data set relates to control hiPSC-CMs. The data set is described as follows: caspase 3 and 7 activity after 24 h doxorubicin (Caspase 3/7-Glo). It is filed as cell-based, human.
The subject of the next data set is MDA-MB-231. In words: breast cancer cell viability after 72 h of doxorubicin and RARG agonists co-treatment. Particulars: MDA-MB-231, doxorubicin 72 h, Vehicle (no agonist).
The test system of a further data set is RARG-WT hiPSC-CMs. The note with it: doxorubicin LD50, agonist 0 μM, 72 h.
Another data set has as its system Hs 578T. In words: breast cancer cell viability after 72 h of doxorubicin and RARG agonists co-treatment. The note with it: doxorubicin 72 h, Vehicle (no agonist).

Method for Hs 578T: (§1) 384-well plate-based cell viability, caspase 3/7 activity, and reactive oxygen species (ROS) assays. […] Luminescence was measured using a VarioSkan Lux Multi-Mode Reader (Thermo Scientific) with an integration time of 0.25 sec. 10 μM staurosporine (MedChemExpress) was used as a positive control. […] 10 μM staurosporine and 50 μM menadione (both MedChemExpress) was used as a positive control, respectively. Data were analyzed using Prism 7.0 software (GraphPad) using standard dose-response guidelines.
(§2) Breast cancer cell lines. Four human breast cancer cell lines were used, MCF7 (adenocarcinoma, ATCC HTB-22) and Hs 578T (carcinsarcoma, ATCC HTB-126) both cultured in RPMI 1640 (Corning) with 10% FBS (Opti-Gold, GenDEPOT), MDA-MB-231 (adenocarcinoma, ATCC HTB-26) and MDA-MB-468 (adenocarcinoma, ATCC HTB-131) both cultured in DMEM (Corning) with 10% FBS. All cells were cultured on uncoated tissue culture plates (Greiner) and passaged with TrypLE Express (Gibco).
Method for MDA-MB-231: as §1, §2
Method for MDA-MB-468: as §1, §2
Method for RARG-KO hiPSC-CMs: as §1
Method for RARG-WT hiPSC-CMs: as §1
Method for control hiPSC-CMs: as §1

Take `COc1cccc2c1C(=O)c1c(O)c3c(c(O)c1C2=O)C[C@@](O)(C(=O)CO)C[C@@H]3O[C@H]1C[C@H](N)[C@H](O)[C@H](C)O1` [doxorubicin]: the LD50 in the data set with MDA-MB-468 amounted to 1.330 µM; with MDA-MB-231, 1.301 µM; in the data set with Hs 578T, 1.829 µM. Further, the “cardiac function, as assessed by fractional shortening” value in the data set with C57BL/6J Mice was “steady decline in cardiac function”. The “LD50, cell viability” value in the data set with RARG-KO hiPSC-CMs stood at 1.582 µM. Also, the ROS production entry with hiPSC-CMs was “concentration-dependent increase in ROS production”. For the same compound, in the data set with control hiPSC-CMs, the “LD50, caspase 3 and 7 activity” value stood at 2.078 µM. Besides, the “RARG-WT: LD50” value with RARG-WT hiPSC-CMs was determined as 0.469 µM.
